# Reference: patent publication US11376328B2, “Pharmaceutical composition” (Astellas Pharma Inc., priority 2017, dated 2022)
# Assay: Solubility in water of the drug substance
# Format: physicochemical
# Details: drug substance as used
# Source text: The drug solubility in water of a drug may be determined, for example, in accordance with the method described in the General Notices of The Japanese Pharmacopoeia, Seventeenth Edition.
Compound,"solubility at 30 min (water, 20 °C, thermodynamic from solid)",Solubility in water
Cc1cccc(C)c1N(CC(=O)Nc1ccc(-c2ncon2)cc1)C(=O)C1CCS(=O)(=O)CC1 [amenamevir],5 µg/mL,
C=CC[C@@H]1/C=C(\C)C[C@H](C)C[C@H](OC)[C@H]2O[C@@](O)(C(=O)C(=O)N3CCCC[C@H]3C(=O)O[C@H](/C(C)=C/[C@@H]3CC[C@@H](O)[C@H](OC)C3)[C@H](C)[C@@H](O)CC1=O)[C@H](C)C[C@@H]2OC [tacrolimus],,4 µg/mL
